Test results taken from patent US20240368177A1, “5-AMINO-6,8-DIHYDRO-1H-FURO[3,4-d]PYRROLO[3,2-b]PYRIDINE-2-CARBOXAMIDE DERIVATIVES AS MTA-COOPERATIVE INHIBITORS OF PRMT5” (BeiGene Switzerland GmbH, priority 2023, published 2024).

Columns and labels:
HCT116-MTAP-KO = assay: Cell killing in HCT116 isogenic pair (Cell Titer-Glo viability), MTAP knock-out cells; format: cell-based, human; details: Homo sapiens, HCT-116, 144 h, 6 days incubation, 0-10 μM, * = more than 50% viability inhibition at tested concentration without a full curve
From the text: (§1) HCT116 cell line (ATCC, CCL-247) was isolated from the colon of an adult with colon cancer. It has a mutation in codon 13 of the ras proto-oncogene and can be used as a positive control for PCR assays of mutation in this codon. HCT116-MTAP-KO was knocked-out-MTAP-gene based HCT116, and a single clone was passed for this assay. HCT116-mock-RNA-KO was knocked-out-mock-gene based HCT116 with MTAP wildtype genotype. The base medium for HCT116 isogenic pair is RPMI 1640, HEPES (Gibco, 22400105). To make the complete growth medium, added the following components to the base medium: fetal bovine serum to a final concentration of 10% (Gibco, 10099-141C). The cell line was grown in a humidified 5% CO2 atmosphere at 37° C. and regularly tested for the presence of mycoplasma with MpcoAlert™ PLUS Mycoplasma Detection Kit (Lonzak LT07-710).
(§2) • Seeded HCT116-mock-RNA-KO (4E2/well) or HCT116-MTAP-KO (4E2/well) cells into a 96-well plate (Greiner: 655090), 100 μL/well. • Incubated at 37° C., 5% CO2, overnight. • Added 50 μL fresh growth medium containing serial dilution of test compounds for a final test compound concentration of 0-10 μM to each well. • Incubated at 37° C., 5% CO2, 6 days. • The cell viability was detected by Cell Titer-Glo (Promega, G7573). Added 70 μL of CeliTiter-Glo® reagent in each well. • Incubated at room temperature for 10 minutes to stabilize luminescent signal. • Analyzed with Microplate Reader (TECAN, SPARK) and fit IC50 using Prism® 9.

HCT116-mock-RNA-KO = assay: Cell killing in HCT116 isogenic pair (Cell Titer-Glo viability), mock knock-out cells with MTAP wildtype genotype; format: cell-based, human; details: Homo sapiens, HCT-116, 144 h, 6 days incubation, 0-10 μM
From the text: as §1, §2

Compound | IC50 (HCT116-MTAP-KO) [nM] | IC50 (HCT116-mock-RNA-KO) [nM]
C[C@H](c1ncccn1)N(Cc1ncc(C2CC2)cc1F)C(=O)c1cc2nc(N)c3c(c2[nH]1)COC3 [Example 52, (R)-5-amino-N-((5-cyclopropyl-3-fluoropyridin-2-yl)methyl)-N-(1-(pyrimidin-2-yl)ethyl)-6,8-dihydro-1H-furo[3,4-d]pyrrolo[3,2-b]pyridine-2-carboxamide] | 4.6 | 419
N#Cc1cc(F)c(CN(Cc2ncccc2F)C(=O)c2cc3nc(N)c4c(c3[nH]2)COC4)c(F)c1 [Example 43, 5-amino-N-(4-cyano-2,6-difluorobenzyl)-N-((3-fluoropyridin-2-yl)methyl)-6,8-dihydro-1H-furo[3,4-d]pyrrolo[3,2-b]pyridine-2-carboxamide] | 2.9 | 207
CN(C(=O)c1cc2nc(N)c3c(c2[nH]1)COC3)[C@H]1COCc2cc(C(F)(F)F)ccc21 [Example 39, (R)-5-amino-N-methyl-N-(7-(trifluoromethyl)isochroman-4-yl)-6,8-dihydro-1H-furo[3,4-d]pyrrolo[3,2-b]pyridine-2-carboxamide] | 1170 | > 10000
Nc1nc2cc(C(=O)N3CCOC[C@@H]3c3ccc(C(F)(F)F)cc3)[nH]c2c2c1COC2 [Example 141, (S)-(5-amino-6,8-dihydro-1H-furo[3,4-d]pyrrolo[3,2-b]pyridin-2-yl)(3-(4-(trifluoromethyl)phenyl)morpholino)methanone] | 149 | > 10000
Nc1nc2cc(C(=O)N(Cc3ccc(-c4c(F)cccc4F)cc3F)[C@H]3CCOc4cccnc43)[nH]c2c2c1COC2 [Example 20, (S)-5-amino-N-(3,4-dihydro-2H-pyrano[3,2-b]pyridin-4-yl)-N-((2′,3,6′-trifluoro-[1,1′-biphenyl]-4-yl)methyl)-6,8-dihydro-1H-furo[3,4-d]pyrrolo[3,2-b]pyridine-2-carboxamide] | 658 | 4000
C[C@@H](c1ncc(C2CC2)cc1F)N(C(=O)c1cc2nc(N)c3c(c2[nH]1)COC3)C1CCC1 [Example 154, (S)-5-amino-N-cyclobutyl-N-(1-(5-cyclopropyl-3-fluoropyridin-2-yl)ethyl)-6,8-dihydro-1H-furo[3,4-d]pyrrolo[3,2-b]pyridine-2-carboxamide] | 1630 | 8520
C[C@@H](c1c(F)cc(C(F)(F)F)cc1F)N(C)C(=O)c1cc2nc(N)c3c(c2[nH]1)COC3 [Example 149, (S)-5-amino-N-(1-(2,6-difluoro-4-(trifluoromethyl)phenyl)ethyl)-N-methyl-6,8-dihydro-1H-furo[3,4-d]pyrrolo[3,2-b]pyridine-2-carboxamide] | 2680 | > 10000
CCN(C(=O)c1cc2nc(N)c3c(c2[nH]1)COC3)[C@@H](C)c1ccc(C(F)(F)F)cc1F [Example 136, (S)-5-amino-N-ethyl-N-(1-(2-fluoro-4-(trifluoromethyl)phenyl)ethyl)-6,8-dihydro-1H-furo[3,4-d]pyrrolo[3,2-b]pyridine-2-carboxamide] | 245 | 3520
C[C@H]1OCc2c1c(N)nc1cc(C(=O)N(C)[C@@H]3COCc4cc(Br)ccc43)[nH]c21 [Example 72, (R)-5-amino-N—((S)-7-bromoisochroman-4-yl)-N,6-dimethyl-6,8-dihydro-1H-furo[3,4-d]pyrrolo[3,2-b]pyridine-2-carboxamide] | 8.2 | 1010
C[C@H]1OC[C@@H](N(C)C(=O)c2cc3nc(N)c4c(c3[nH]2)CO[C@@H]4C)c2ccc(C(F)(F)F)cc21 [Example 83, (R)-5-amino-N,6-dimethyl-N-((1R,4S)-1-methyl-7-(trifluoromethyl)isochroman-4-yl)-6,8-dihydro-1H-furo[3,4-d]pyrrolo[3,2-b]pyridine-2-carboxamide] | 7.2 | 556
C[C@H]1OCc2c1c(N)nc1cc(C(=O)N(C)[C@H]3COCc4cc(Br)ccc43)[nH]c21 [Example 71, (R)-5-amino-N—((R)-7-bromoisochroman-4-yl)-N,6-dimethyl-6,8-dihydro-1H-furo[3,4-d]pyrrolo[3,2-b]pyridine-2-carboxamide] | 728 | 6160
CO[C@@H]1CCOC[C@H]1N(Cc1ccc(C(F)(F)F)cn1)C(=O)c1cc2nc(N)c3c(c2[nH]1)COC3 [Example 26, 5-amino-N-((3R,4R)-4-methoxytetrahydro-2H-pyran-3-yl)-N-((5-(trifluoromethyl)pyridin-2-yl)methyl)-6,8-dihydro-1H-furo[3,4-d]pyrrolo[3,2-b]pyridine-2-carboxamide] | 14 | 1870
COC[C@@H](C)N(Cc1ncc(C(F)(F)F)cc1F)C(=O)c1cc2nc(N)c3c(c2[nH]1)COC3 [Example 44, (R)-5-amino-N-((3-fluoro-5-(trifluoromethyl)pyridin-2-yl)methyl)-N-(1-methoxypropan-2-yl)-6,8-dihydro-1H-furo[3,4-d]pyrrolo[3,2-b]pyridine-2-carboxamide] | 8.2 | 568
Nc1nc2cc(C(=O)N(Cc3ncc(C4CC4)cc3F)C3CCC3)[nH]c2c2c1COC2 [Example 69, 5-amino-N-cyclobutyl-N-((5-cyclopropyl-3-fluoropyridin-2-yl)methyl)-6,8-dihydro-1H-furo[3,4-d]pyrrolo[3,2-b]pyridine-2-carboxamide] | 26 | 2700
CCN(C(=O)c1cc2nc(N)c3c(c2[nH]1)COC3)[C@@H](C)c1ccc(C2CC2)cc1F [Example 178, (S)-5-amino-N-(1-(4-cyclopropyl-2-fluorophenyl)ethyl)-N-ethyl-6,8-dihydro-1H-furo[3,4-d]pyrrolo[3,2-b]pyridine-2-carboxamide] | 1040 | 3270
C[C@H]1OCc2c1c(N)nc1cc(C(=O)N(Cc3ccc(Br)cn3)Cc3ncccc3F)[nH]c21 [Example 50, (R)-5-amino-N-((5-bromopyridin-2-yl)methyl)-N-((3-fluoropyridin-2-yl)methyl)-6-methyl-6,8-dihydro-1H-furo[3,4-d]pyrrolo[3,2-b]pyridine-2-carboxamide] | 8.6 | 1360
COCC(COC)N(Cc1c(F)cccc1F)C(=O)c1cc2nc(N)c3c(c2[nH]1)COC3 [Example 9, 5-amino-N-(2,6-difluorobenzyl)-N-(1,3-dimethoxypropan-2-yl)-6,8-dihydro-1H-furo[3,4-d]pyrrolo[3,2-b]pyridine-2-carboxamide] | 46 | 3440
CCN(C(=O)c1cc2nc(N)c3c(c2[nH]1)CO[C@@H]3C)[C@@H](C)c1ncc(C(F)(F)F)cc1F [Example 131, (R)-5-amino-N-ethyl-N—((S)-1-(3-fluoro-5-(trifluoromethyl)pyridin-2-yl)ethyl)-6-methyl-6,8-dihydro-1H-furo[3,4-d]pyrrolo[3,2-b]pyridine-2-carboxamide] | 1830 | > 10000
CN(C(=O)c1cc2nc(N)c3c(c2[nH]1)COC3)[C@@H]1COC2(CC2)c2cc(C3CC3)ccc21 [Example 172, (S)-5-amino-N-(7′-cyclopropylspiro[cyclopropane-1,1′-isochroman]-4′-yl)-N-methyl-6,8-dihydro-1H-furo[3,4-d]pyrrolo[3,2-b]pyridine-2-carboxamide] | 33 | 5050
CCN(C(=O)c1cc2nc(N)c3c(c2[nH]1)COC3)[C@H]1COCc2cc(Cl)ccc21 [Example 74, (R)-5-amino-N-(7-chloroisochroman-4-yl)-N-ethyl-6,8-dihydro-1H-furo[3,4-d]pyrrolo[3,2-b]pyridine-2-carboxamide] | 1070 | > 10000
CC(C)N(Cc1ncc(C2CC2)cc1F)C(=O)c1cc2nc(N)c3c(c2[nH]1)COC3 [Example 66, 5-amino-N-((5-cyclopropyl-3-fluoropyridin-2-yl)methyl)-N-isopropyl-6,8-dihydro-1H-furo[3,4-d]pyrrolo[3,2-b]pyridine-2-carboxamide] | 20 | 2520
CC[C@@H]1OC[C@@H](N(C)C(=O)c2cc3nc(N)c4c(c3[nH]2)COC4)c2ccc(C(F)(F)F)cc21 [Example 93, 5-amino-N-((1S,4S)-1-ethyl-7-(trifluoromethyl)isochroman-4-yl)-N-methyl-6,8-dihydro-1H-furo[3,4-d]pyrrolo[3,2-b]pyridine-2-carboxamide] | 165 | > 10000
CN(C(=O)c1cc2nc(N)c3c(c2[nH]1)COC3)[C@H]1CN(C(=O)C2CC2)Cc2cc(C(F)(F)F)ccc21 [Example 101, (R)-5-amino-N-(2-(cyclopropanecarbonyl)-7-(trifluoromethyl)-1,2,3,4-tetrahydroisoquinolin-4-yl)-N-methyl-6,8-dihydro-1H-furo[3,4-d]pyrrolo[3,2-b]pyridine-2-carboxamide] | 339 | 2090
